Several values for one entry are separate records, joined by “and”; a condition that tells them apart may be missing. Equal values may be shown once. Toxic doses and inconclusive results are not listed. Cut-off read from the data, not from the text of the source: active = T/C of 150% or more; inactive = T/C below 125%.
Tested on: L1210 leukemia ip in BDF1 mice, survival T/C
Test: NCI In Vivo Anticancer Drug Screen. Data for tumor model L1210 Leukemia (intraperitoneal) in B6D2F1 (BDF1) mice
Conditions: endpoint: mean survival time, higher = longer survival
Procedure, shortened: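 Value reflects the ratio of survival in compound-treated mice to survival in vehicle-treated controls, with both groups carrying the same transplanted tumor.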

[1] = dose: 100.0 mg/kg/injection, schedule: Q04DX003 (ip), vehicle: saline with Tween-80
[2] = dose: 200.0 mg/kg/injection, schedule: Q04DX003 (ip), vehicle: saline with Tween-80
[3] = dose: 400.0 mg/kg/injection, schedule: Q04DX003 (ip), vehicle: saline with Tween-80
[4] = dose: 100.0 mg/kg/injection, schedule: Q01DX009 (ip), vehicle: saline with Tween-80
[5] = dose: 200.0 mg/kg/injection, schedule: Q01DX009 (ip), vehicle: saline with Tween-80
[6] = dose: 50.0 mg/kg/injection, schedule: Q01DX009 (ip), vehicle: saline with Tween-80
[7] = dose: 12.5 mg/kg/injection, schedule: Q04DX003 (ip), vehicle: saline
[8] = dose: 25.0 mg/kg/injection, schedule: Q04DX003 (ip), vehicle: saline
[9] = dose: 100.0 mg/kg/injection, schedule: Q04DX003 (ip), vehicle: saline
[10] = dose: 25.0 mg/kg/injection, schedule: Q01DX009 (ip), vehicle: saline
[11] = dose: 50.0 mg/kg/injection, schedule: Q01DX009 (ip), vehicle: saline
[12] = dose: 100.0 mg/kg/injection, schedule: Q01DX009 (ip), vehicle: saline
[13] = dose: 100.0 mg/kg/injection, schedule: Q01DX009 (ip), vehicle: Klucel (hydroxypropylcellulose) (HPC)
[14] = dose: 100.0 mg/kg/injection, schedule: Q04DX003 (ip), vehicle: Klucel (hydroxypropylcellulose) (HPC)
[15] = dose: 200.0 mg/kg/injection, schedule: Q01DX009 (ip), vehicle: Klucel (hydroxypropylcellulose) (HPC)
[16] = dose: 400.0 mg/kg/injection, schedule: Q01DX009 (ip), vehicle: Klucel (hydroxypropylcellulose) (HPC)
[17] = dose: 100.0 mg/kg/injection, schedule: Q01DX001 (ip), vehicle: saline
[18] = dose: 200.0 mg/kg/injection, schedule: Q01DX001 (ip), vehicle: saline
[19] = dose: 400.0 mg/kg/injection, schedule: Q01DX001 (ip), vehicle: saline
[20] = dose: 12.5 mg/kg/injection, schedule: Q01DX009 (ip), vehicle: saline with Tween-80
[21] = dose: 25.0 mg/kg/injection, schedule: Q01DX009 (ip), vehicle: saline with Tween-80
[22] = dose: 50.0 mg/kg/injection, schedule: Q04DX003 (ip), vehicle: saline

Measured: T/C

CCCCOC(c1ccc2c(c1)OCO2)C(C)Br (configuration not stated)
inactive: [1] 94 % of control | [2] 94 % of control | [3] 97 % of control

C[CH2][Sn]([CH2]C)([O]S(C)(=O)=O)[O]S(C)(=O)=O
inactive: dose: 0.78 mg/kg/injection, schedule: Q01DX009 (ip), vehicle: saline 95 % of control | dose: 1.56 mg/kg/injection, schedule: Q01DX009 (ip), vehicle: saline 98 % of control | dose: 3.12 mg/kg/injection, schedule: Q01DX009 (ip), vehicle: saline 106 % of control | dose: 6.25 mg/kg/injection, schedule: Q01DX009 (ip), vehicle: saline 116 % of control | dose: 12.5 mg/kg/injection, schedule: Q01DX009 (ip), vehicle: saline 102 % of control

CC1CCCCC1O (configuration not stated)
inactive: [4] 102 % of control | [5] 92 % of control

COc1ccc2c(c1)C(CO)c1ccc(Cl)cc1N2 (configuration not stated)
inactive: [1] 93 % of control | [2] 96 % of control | [3] 94 % of control

CC(=O)COCC1CO1 (configuration not stated)
inactive: [6] 92 % of control | [4] 92 % of control | [5] 100 % of control

CCOC(=O)c1c[n]([Hg][n]2cc(C(=O)OCC)c(Nc3ccccc3Cl)nc2=O)c(=O)nc1Nc1ccccc1Cl
inactive: dose: 3.0 mg/kg/injection, schedule: Q01DX009 (ip), vehicle: saline with Tween-80 96 % of control | dose: 6.0 mg/kg/injection, schedule: Q01DX009 (ip), vehicle: saline with Tween-80 96 % of control | dose: 12.0 mg/kg/injection, schedule: Q01DX009 (ip), vehicle: saline with Tween-80 95 % of control | dose: 12.5 mg/kg/injection, schedule: Q04DX003 (ip), vehicle: saline with Tween-80 100 % of control

Nc1[nH]c(=O)cc(O)c1N
inactive: [7] 108 % of control | [8] 105 % of control | [9] 98 % of control

CCOC(=O)c1cc2sccc2[nH]1
inactive: [1] 100 % of control | [2] 100 % of control | [3] 93 % of control

O=C(C[n+]1ccccc1)N/N=C/c1ccc(Cl)c(Cl)c1
inactive: [10] 94 % of control | [11] 102 % of control | [12] 102 % of control

CCO/C=C1\SC(=S)N(CCc2ccc(OC)c(OC)c2)C1=O
inactive: [13] 94 % of control | [14] 102 % of control | [15] 93 % of control | dose: 200.0 mg/kg/injection, schedule: Q04DX003 (ip), vehicle: Klucel (hydroxypropylcellulose) (HPC) 102 % of control | [16] 103 % of control | dose: 400.0 mg/kg/injection, schedule: Q04DX003 (ip), vehicle: Klucel (hydroxypropylcellulose) (HPC) 102 % of control

CC(C)C1C(C(N)=O)C(=O)OC1(C)C (configuration not stated)
inactive: [17] 96 % of control | [18] 98 % of control | [19] 96 % of control

O=S(NOCc1ccccc1)c1ccccc1 (configuration not stated)
inactive: dose: 100.0 mg/kg/injection, schedule: Q04DX002 (ip), vehicle: Klucel (hydroxypropylcellulose) (HPC) 107 % of control | dose: 200.0 mg/kg/injection, schedule: Q04DX002 (ip), vehicle: Klucel (hydroxypropylcellulose) (HPC) 107 % of control | dose: 400.0 mg/kg/injection, schedule: Q04DX002 (ip), vehicle: Klucel (hydroxypropylcellulose) (HPC) 111 % of control

CC(C)c1cc[n+]([O-])cc1
inactive: [6] 94 % of control | [4] 94 % of control | [5] 91 % of control

Cc1ccc(/C=C(\C#N)C(=O)O)cc1
inactive: [20] 94 % of control | [21] 94 % of control | [6] 100 % of control and 88 % of control

CN(C)C1(Cc2ccccc2)c2ccccc2-c2ccc(Br)cc21 (configuration not stated)
inactive: dose: 6.25 mg/kg/injection, schedule: Q01DX009 (ip), vehicle: saline with Tween-80 92 % of control | [20] 89 % of control | [21] 89 % of control | [4] 88 % of control

O=C(N/N=C/C=C/c1ccccc1)c1ccccc1O
inactive: [13] 92 % of control | [15] 89 % of control | [16] 95 % of control

CC(CN(C)C)C(=O)c1ccccc1 (configuration not stated)
inactive: dose: 25.0 mg/kg/injection, schedule: Q01DX009 (ip), vehicle: Klucel (hydroxypropylcellulose) (HPC) 106 % of control | [10] 105 % of control and 104 % of control | dose: 25.0 mg/kg/injection, schedule: Q04DX002 (ip), vehicle: saline 104 % of control | dose: 25.0 mg/kg/injection, schedule: Q04DX003 (ip), vehicle: Klucel (hydroxypropylcellulose) (HPC) 91 % of control | [8] 98 % of control | dose: 50.0 mg/kg/injection, schedule: Q01DX009 (ip), vehicle: Klucel (hydroxypropylcellulose) (HPC) 101 % of control | [11] 110 % of control and 100 % of control | dose: 50.0 mg/kg/injection, schedule: Q04DX002 (ip), vehicle: saline 96 % of control | dose: 50.0 mg/kg/injection, schedule: Q04DX003 (ip), vehicle: Klucel (hydroxypropylcellulose) (HPC) 100 % of control | [22] 88 % of control | [13] 108 % of control | [12] 102 % of control and 96 % of control | dose: 100.0 mg/kg/injection, schedule: Q04DX002 (ip), vehicle: saline 96 % of control | [14] 101 % of control and 102 % of control | [9] 96 % of control and 103 % of control

O=c1[nH]cnc2c1ncn2Cc1ccc([N+](=O)[O-])cc1
inactive: dose: 100.0 mg/kg/injection, schedule: Q01DX001 (ip), vehicle: other 96 % of control | [1] 102 % of control | dose: 200.0 mg/kg/injection, schedule: Q01DX001 (ip), vehicle: other 98 % of control | [2] 96 % of control | [3] 94 % of control

CCCCCCCCCCCCCCCCCCNC(=O)Nc1cccc(NC(C)=O)c1
inactive: [13] 91 % of control | [15] 88 % of control | [16] 98 % of control

CCOC(=N)CCNS(=O)(=O)c1ccc(C)cc1
inactive: [17] 104 % of control | [18] 98 % of control | [19] 115 % of control

CSc1ccc(OC(=O)Nc2ccc(Cl)cc2Cl)cc1C
inactive: [13] 95 % of control | [15] 98 % of control | [16] 95 % of control

Cc1cc(NC(C)C)c(C)cc1NC(C)C
inactive: dose: 12.5 mg/kg/injection, schedule: Q04DX002 (ip), vehicle: Klucel (hydroxypropylcellulose) (HPC) 93 % of control | dose: 25.0 mg/kg/injection, schedule: Q04DX002 (ip), vehicle: Klucel (hydroxypropylcellulose) (HPC) 96 % of control

CCCSC1=C(N2CC2)C(=O)C(SCCC)=C(N2CC2)C1=O
inactive: dose: 6.25 mg/kg/injection, schedule: Q04DX003 (ip), vehicle: saline 98 % of control | [7] 104 % of control | [8] 97 % of control | [22] 103 % of control | [9] 108 % of control | dose: 200.0 mg/kg/injection, schedule: Q04DX003 (ip), vehicle: saline 116 % of control

CC(F)C1CCCC(F)C1 (configuration not stated)
inactive: [17] 103 % of control | [18] 100 % of control | [19] 105 % of control

COC(=O)CC(=O)/C(=C/C(C/C=C(\C(=O)CC(=O)OC)C(=O)OC)OC)C(=O)OC (configuration not stated)
inactive: dose: 50.0 mg/kg/injection, schedule: Q01DX001 (ip), vehicle: carboxymethylcellulose (CMC) 103 % of control | dose: 100.0 mg/kg/injection, schedule: Q01DX001 (ip), vehicle: carboxymethylcellulose (CMC) 101 % of control | dose: 200.0 mg/kg/injection, schedule: Q01DX001 (ip), vehicle: carboxymethylcellulose (CMC) 101 % of control | dose: 400.0 mg/kg/injection, schedule: Q01DX001 (ip), vehicle: carboxymethylcellulose (CMC) 100 % of control

c1ccc2c(c1)ccc1ccc3cccc[n+]3c12
inactive: dose: 1.25 mg/kg/injection, schedule: Q01DX001 (ip), vehicle: saline 93 % of control | dose: 2.5 mg/kg/injection, schedule: Q01DX001 (ip), vehicle: saline 102 % of control | dose: 5.0 mg/kg/injection, schedule: Q01DX001 (ip), vehicle: saline 108 % of control | dose: 10.0 mg/kg/injection, schedule: Q01DX001 (ip), vehicle: saline 102 % of control

From PubChem BioAssay AID248 (DTP/NCI, 2004)
